Patent US20250332183A1, “COMPOSITIONS AND METHODS FOR THE STIMULATION OF INTERMEDIATE MACROPHAGES AND TREATMENTS THEREWITH” (priority 2024, published 2025)
Entries after “also recorded” stand apart in the source; their conditions may differ.

What was measured:
mice [1] = assay: Mouse model of influenza peptide vaccination; type: in vivo; details: AVR-48 alone or with Flu-A peptide, vs MPLA
Experimental: Study design: N=4/per group ([…], 6-7 months old). Group-1: (FluA) 1st dose; No 2nd dose; Group-2: (FluA) 1st dose; (FluA+MPLA) 2nd dose; Group 3: AVR-48 1st dose; No 2nd dose; and Group 4: Flu-A 1st dose; Flu-A+AVR-48 2nd dose.
Outcome measures: immune cell quantification (FACS) in the spleen, and IgG in serum (ELISA).
(§1) In vivo study: In one study, C57Bl/6J mice (n=4/group) were dosed intramuscularly (IM) with either complete Freund's adjuvant (CFA) or incomplete Freund's adjuvant (IFA) along with AVR-48 for a 28-day study using a prime-boost-boost regimen. In the second study, mice were dosed with MPLA and Flu-peptide using only the priming dose regimen (no booster). Splenic immune cells and plasma immunoglobin concentrations were assessed at day 28.

CD163 scavenger receptor = target: T1, CD163 scavenger receptor (Homo sapiens, UniProt Q86VB7); assay: Binding of AVR-48 to CBMC monocytes and lymphocytes by flow cytometry
T1 construct: endogenous in cells; host or cells: human cord blood mononuclear cells (monocytes and lymphocytes)
T1 sequence (Q86VB7 42-1156): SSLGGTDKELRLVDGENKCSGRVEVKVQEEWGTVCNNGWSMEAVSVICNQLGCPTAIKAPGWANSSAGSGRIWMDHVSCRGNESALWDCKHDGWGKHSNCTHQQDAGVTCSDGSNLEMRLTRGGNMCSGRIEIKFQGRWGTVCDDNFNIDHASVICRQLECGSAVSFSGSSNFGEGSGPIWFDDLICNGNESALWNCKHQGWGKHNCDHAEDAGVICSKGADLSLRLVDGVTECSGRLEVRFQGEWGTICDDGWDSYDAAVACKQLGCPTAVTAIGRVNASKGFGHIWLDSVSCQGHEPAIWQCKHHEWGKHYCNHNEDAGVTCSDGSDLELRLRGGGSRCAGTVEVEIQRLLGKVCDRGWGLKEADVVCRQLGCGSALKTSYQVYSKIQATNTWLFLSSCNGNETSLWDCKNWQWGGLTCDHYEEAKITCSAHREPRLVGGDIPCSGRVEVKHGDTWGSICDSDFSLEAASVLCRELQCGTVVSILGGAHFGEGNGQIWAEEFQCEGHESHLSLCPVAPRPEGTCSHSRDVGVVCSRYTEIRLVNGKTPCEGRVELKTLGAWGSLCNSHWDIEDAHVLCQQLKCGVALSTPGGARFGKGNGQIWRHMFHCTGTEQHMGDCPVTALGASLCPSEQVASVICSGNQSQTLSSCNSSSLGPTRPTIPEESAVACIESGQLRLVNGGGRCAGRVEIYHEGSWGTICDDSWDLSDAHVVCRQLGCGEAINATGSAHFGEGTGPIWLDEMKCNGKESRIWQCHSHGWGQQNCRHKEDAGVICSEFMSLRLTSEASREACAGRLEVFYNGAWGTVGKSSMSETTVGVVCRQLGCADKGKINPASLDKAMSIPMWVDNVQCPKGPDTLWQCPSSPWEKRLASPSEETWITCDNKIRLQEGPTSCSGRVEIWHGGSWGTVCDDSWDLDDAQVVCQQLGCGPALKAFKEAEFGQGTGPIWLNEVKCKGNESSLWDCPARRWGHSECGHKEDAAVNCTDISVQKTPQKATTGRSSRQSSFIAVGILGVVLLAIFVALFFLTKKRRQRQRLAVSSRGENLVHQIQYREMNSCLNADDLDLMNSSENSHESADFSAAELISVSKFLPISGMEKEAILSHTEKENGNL
Source text: N=3 *p≤0.05, **p≤0.01, ***p≤0.001, **** p≤0.0001. Two-way ANOVA was used for statistical analysis.

hPBMCs = hPBMCs treated 7 days with AVR-48, LPS, MPLA, Influenza-A peptides, flow cytometry; type: cell-based, human
mice [2] = assay: Ovalbumin vaccination mouse model with CFA/IFA; type: in vivo; details: AVR-48 along with Ovalbumin±CFA/IFA, day 28
Experimental: Study Design: N=4/per group (Balbc/6J, 6-7 months old). Group-1: (OVA+CFA) 1st dose; (OVA+IFA) 2nd dose; OVA-3rd dose; Group 2: OVA+CFA+AVR-48 1st dose; OVA+IFA+AVR-48 2nd dose; OVA+AVR-48 3rd dose; and Group 3: OVA+IFA+AVR48 1st dose; OVA+IFA+AVR-48 2nd dose; OVA+AVR-48 3rd dose.
Outcome measures: Immune cell quantification (FACS) in the spleen and IgG in serum (ELISA).
as §1

mice [3] = assay: AVR-48 pretreatment of mice followed by LPS, immune cell profile; type: in vivo, mouse; details: mice pretreated with AVR-48, in the presence of LPS
Source text: AVR-48 stimulated innate and adaptive immune response via (FIG. 25E) TNF-α increase and (FIG. 25F) CD3+, (FIG. 25G) CD4+, and (FIG. 25H) CD8+ T-cells, a necessary step in adaptive response and immune resolution. *p<0.05, **p<0.01, ***p<0.001; N=4, One-way ANOVA was used for analysis.

[4] = test system: preterm lamb model of BPD; assay: Respiratory gas exchange / oxygenation and ventilation indices in ventilated preterm lambs; type: in vivo
Experimental: For dose-optimization, preterm (PT) lambs were delivered at ˜128d (d; saccular stage of lung development; ˜85% gestation) after maternal antenatal steroids exposure. […] After delivery and surfactant administration, PT lambs were maintained on invasive mechanical ventilation (IMV) for 7d followed by 3d noninvasive respiratory support. For the early-stage study, outcomes were determined for PT lambs over DOL1-10. For the late-stage study, outcomes were determined for former preterm (FPT) lambs (vehicle, AVR-48 treated) that were weaned from respiratory support after 10d and were maintained in the lamb intensive care unit for a further 80d. Outcomes included functional, structural, molecular, and neurobehavioral assessments. Term reference lambs that were never ventilated were used as developmental references for the FPT lambs.
Arterial blood gases were obtained starting at 15 min of postnatal life and taken every 15 min for the first 90 min of postnatal life. FiO2 was decreased to attain a target oxygenation of O2 saturation 88-94% by pulse oximetry (Model SurgiVet V9200IBP/Temp, Smith Medical ASD, Inc., St. Paul, MN). PIP was adjusted to attain a target PaCO2 between 45 and 60 mmHg. The resultant pH range was between 7.25-7.35.
Study design. A randomized, blinded, placebo-controlled study design was used for both endpoints. For each endpoint study, one group of PT lambs was treated with vehicle (saline, intravenously, iv, over about 10 min) for 7d and thus served as control. Another group of PT lambs was treated iv with AVR-48 for 7d. Either treatment was started at 6 h of postnatal life to allow the PT lambs to stabilize after Cesarean-section delivery and resuscitation physiologically and to permit initiation of ventilator-induced lung injury. The inventors relied on visual identification of biological sex at the time of delivery in the absence of an ultrasound unit in the lamb intensive care unit. The inventors tracked sex as a biological variable, but the study could not assess differences in outcomes based on sex because of small sample sizes.

[5] = early-stage study DOL 1-7, vs vehicle
[6] = early-stage study, PT lambs, 3.0 mg/kg, vs vehicle

CC(=O)NC1C(Oc2ccc([N+](=O)[O-])cc2)OC(CO)C(O)C1O (centres unmarked) [AVR-48]
CD4+ T-helper cells in mouse spleen (mice [1]): increased
CD8+ T cells in mouse spleen (mice [1]): increased
CD19+ B cells in mouse spleen (mice [1]): increased
CD38+/CD27+ plasma blasts in mouse spleen (mice [1]): increased
IgG in mouse serum (mice [1]): increased
binding to CD163 scavenger receptor (CD163 scavenger receptor): exhibits a binding affinity
TEMRE effector T-cell production (hPBMCs; compared to MPLA): stimulated more
CD8+ IFN-g+ T-memory and helper cell recruitment (hPBMCs; in the presence of influenza-A peptide): perturbated
CD4+ T-cells production (hPBMCs; vs MPLA): outperformed MPLA
CD27− T-cells production (hPBMCs; vs MPLA): outperformed MPLA
CD138+/CD38+/CD27+ plasma cells in mouse spleen (mice [2]): Increased
IgG in serum (mice [2]): Increased
CD3+ T-cells (mice [3]): stimulated
CD4+ T-cells (mice [3]): stimulated
CD8+ T-cells (mice [3]): stimulated
M1 macrophages (mice [3]): increased
Mint (intermediate) macrophages (mice [3]): increased
TNF-α (mice [3]): increase
BPD-like symptoms ([4]; 10d period, dose escalation 0.1-9.0 mg/kg/dose): diminished in a dose-related manner
respiratory severity score (RSS) ([4]; early-stage pilot, PT lambs, 1.0 mg/kg iv every 12 h): improved moderately
FiO2 and PaO2 [4, 5]: No statistical difference
PIP and PaCO2 [4, 5]: No statistical difference
respiratory severity score (RSS) ([4]; early-stage study, PT lambs, 3.0 mg/kg iv every 12 h, vs vehicle, 3 mg/kg): Significant improvements; also recorded: significantly improved
Alveolar-arterial (A-a) gradient [4, 6]: significantly improved
SpO2/FiO2 (SF) ratio [4, 6]: significantly improved
oxygenation index [4, 6]: significantly improved
